# From publication PMC10707724, “Dual Effects of 3-epi-betulin from Daphniphyllum glaucescens in Suppressing SARS-CoV-2-Induced Inflammation and Inhibiting Virus Entry” (International Journal of Molecular Sciences, 2023)
# How the values were obtained:
# Format in all cases: cell-based
# [1] = tested on: SARS-CoV-2 Omicron (BA.1); assay: microbe, parasite or virus in culture; conditions: Omicron (BA.1), compared with the other variants
# SARS-CoV-2 SEMpv (D614G) = conditions: read-out: EC50, pseudovirus entry
# SARS-CoV-2 SEMpv (N501Y) = conditions: read-out: EC50, pseudovirus entry
compound,measurement,setting,value
"C=C(C)[C@@H]1CC[C@]2(CO)CC[C@]3(C)[C@H](CC[C@@H]4[C@@]5(C)CC[C@@H](O)C(C)(C)[C@@H]5CC[C@]43C)[C@@H]12 [Compound 5, 3-epi-Betulin]","inhibition activity against variant, in words",[1],did not perform as well
same,EC50,SARS-CoV-2 SEMpv (D614G),12.5 µM
same,EC50,SARS-CoV-2 SEMpv (N501Y),13.1 µM
